Here are results for 22 compounds from PMC4501791, “Molecular Design, Synthesis and Trypanocidal Activity of Dipeptidyl Nitriles as Cruzain Inhibitors” (PLoS Neglected Tropical Diseases, 2015).

One data set addresses T1, cruzain (Trypanosoma cruzi, UniProt P25779).
T1 construct: made in house
Description: biochemical. Particulars: 37°C, pH 5.5, substrate Z-FR-AMC.

Data set [1] has as its system T. cruzi Tulahuen strain amastigotes. In words: Trypanocidal activity against amastigote forms in LLCMK2 cells, Tulahuen strain. The following applies: T. cruzi Tulahuen strain; for killing at 32 µM / EC50: Trypanosoma cruzi; for killing at 32 µM: LLC-MK2, 120 h, read-out: %cell lysis at 32 μM ama Tula; for killing at 32 µM / %cell lysis at 32 μM ama Tula: amastigote lysis, 5 days; for EC50: LLC-MK2, read-out: pEC50 ama Tula (converted); for EC50 / pEC50 ama Tula: amastigote. Type of data set: cell-based.
Description: (§1) The assays against amastigote forms were performed in LLCMK2 cells. Previously, the cells were cultivated in 96-wells microplates (10^3 cells/well). […] After this, the microplates were incubated at 37°C, in CO2 atmosphere, for 5 days. Then, 10 μL of FluoReporter lacZ/Galactosidase Quantitative Kit (Life Technologies) were added and after 30 minutes the fluorometric reaction was read in a microplate reader (Synergy H1, Biotek) at 386 nm excitation and 448 nm emission. For both assays the percentage of parasite lysis was determined from the following formula: %lysis = 100 –{[(X-PC)/(PC-NC)]x100}, where the optical density values of the samples (X), the positive controls (PC) and negative controls (NC) were used. Culture medium was used as positive control (PC) and medium with 0.6% DMSO (v/v) as negative control (NC). All assays were performed in triplicate with two independent experiments.

The subject of the next data set is LLCMK2 cells. In words: Lysis of LLCMK2 host cells. Type of data set: cell-based. The following applies: for cytotoxicity at 32 µM: Macaca mulatta, LLC-MK2, 32 μM, read-out: %cell lysis at 32 μM LLCMK2.
The subject of data set [2] is T. cruzi CL-Brener strain amastigotes. Description: Trypanocidal activity against amastigote forms in LLCMK2 cells, CL-Brener strain. Type of data set: cell-based. Particulars: 5 days; for killing at 32 µM: Trypanosoma cruzi, LLC-MK2, 120 h, amastigote lysis, read-out: %cell lysis at 32 μM ama Brener.
Description: as §1
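For pKi in this document: fluorometric read-out of substrate hydrolysis at excitation 355 nm and emission 460 nm, initial rates over 5 min, Ki from nonlinear kinetic fits, duplicate runs.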

T1 sequence (P25779 123-337 limits assumed): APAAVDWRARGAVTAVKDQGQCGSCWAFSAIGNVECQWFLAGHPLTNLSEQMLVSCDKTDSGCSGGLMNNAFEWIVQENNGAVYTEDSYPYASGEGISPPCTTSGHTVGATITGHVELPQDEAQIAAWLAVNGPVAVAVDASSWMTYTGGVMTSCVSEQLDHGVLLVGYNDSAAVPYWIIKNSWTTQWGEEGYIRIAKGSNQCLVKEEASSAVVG
Description for cruzain: Enzyme kinetic assays were carried out at 37°C in 200 L of a solution containing 100 mM acetate buffer pH 5.5, 300 mM NaCl, 5 mM DTT (dithiothreitol), 5% v/v DMSO (dimethyl sulfoxide), 0.01% v/v Triton X-100 and 0.15 nM cruzain, using Corning® 96-well black flat bottom microplates. The rate of the reaction was monitored using a Biotek Synergy HT plate reader through the fluorescence emission at 460 nm (excitation at 355 nm) due to the hydrolysis of the substrate Z-Phe-Arg-7-amido-4-methylcoumarin (Z-FR-AMC, Sigma-Aldrich). The enzyme stock aliquot was rapidly thawed at 37°C and kept on ice until activation, in which it was incubated for 20 min. in the assay buffer (100 mM acetate pH 5.5 and 5 mM DTT) followed by additional 2 min. incubation with inhibitors before the reaction was started by the addition of the substrate.
Visual inspection and a pre-reading of plate wells were performed to check for possible precipitation and background fluorescence, respectively. Fluorescence emission spectra were also recorded for all inhibitors, using the same excitation wavelength (355 nm) as for the fluorometric assay. […] The reaction was started by the addition of varying concentrations of the substrate and the wells monitored for a total of 5 minutes of reaction. The initial velocities of the substrate hydrolysis under first-order reaction were calculated by Gen5 Biotek software based on the linear-regression coefficient from the fit to data of Relative Fluorescence Unit (mRFU) as a function of time (min).
Each experiment was performed in duplicates for each compound being tested. […] All inhibitors were evaluated in two different concentrations, which were chosen based on a previous screening (percentage of inhibition) at 1.7 μM substrate (~K M). […] SigmaPlot (v. 10.0) was employed for the non-linear fit and the kinetic parameters determination.

At cruzain, `N#CC1(NC(=O)[C@H](Cc2ccccc2)NC(=O)c2ccccc2)CC1` [Compound 7, (2S)-N-(1-cyanocyclopropyl)-3-phenyl-2-(phenylformamido)propanamide] showed a Ki of 251 nM. Also, in data set [1], the killing at 32 µM is 16 ± 10% and the EC50 is 126000 nM.

On to `CC(C)(C#N)NC(=O)[C@H](Cc1ccccc1)NC(=O)c1ccccc1` [Compound 8, (2S)-N-(1-cyano-1-methylethyl)-3-phenyl-2-(phenylformamido)propanamide], for which affinity on cruzain was put at a Ki of 3160 nM.

Compound `N#CCNC(=O)[C@H](Cc1cccc(Cl)c1)NC(=O)c1ccccc1` [Compound 9, (2S)-3-(3-chlorophenyl)-N-(cyanomethyl)-2-(phenylformamido)propanamide] yielded a melting point of 176 to 178 °C. In the data set on LLCMK2 cells, the cytotoxicity at 32 µM turned out to be 12 ± 1%. At cruzain, this compound showed a Ki of 251 nM. Moreover, the killing at 32 µM in data set [2] was determined as 24 ± 1%. In data set [1], the killing at 32 µM is 17 ± 2% and the EC50 is 100000 nM.

On to `N#CCNC(=O)[C@H](CCCNC(=N)N)NC(=O)c1ccccc1` [Compound 13, (2S)-5-carbamimidamido-N-(cyanomethyl)-2-(phenylformamido)pentanamide], for which the melting point lay within 117 to 118 °C. Further, at cruzain, the Ki was 126000 nM.

On cruzain, `N#CCNC(=O)[C@H](Cc1ccccc1)NC(=O)C(F)(F)F` [Compound 15, (2S)-N-(cyanomethyl)-3-phenyl-2-(trifluoroacetamido)propanamide] had a Ki of 3980 nM.

Consider `N#CCNC(=O)[C@H](Cc1ccccc1)NC(=O)c1cccs1` [Compound 16, (2S)-N-(cyanomethyl)-3-phenyl-2-(thiophen-2-ylformamido)propanamide], for which the cytotoxicity at 32 µM in the data set on LLCMK2 cells stood at 19 ± 4%. In addition, the inhibition constant (Ki) at cruzain is 794 nM. Besides, the results for the killing at 32 µM in data set [2] and in data set [1] were 24 ± 2% and 30 ± 11%, respectively. In addition, the EC50 in data set [1] was 63100 nM.

In the case of `N#CCNC(=O)[C@H](Cc1ccccc1)NC(=O)c1cnccn1` [Compound 19, (2S)-N-(cyanomethyl)-3-phenyl-2-(pyrazin-2-ylformamido)propanamide], the cytotoxicity at 32 µM in the data set on LLCMK2 cells was determined as 14 ± 1%. On cruzain, this compound showed a Ki of 1580 nM. In addition, in data set [2], the killing at 32 µM was 21 ± 8%. Also, in data set [1], the killing at 32 µM came out at 22 ± 7% and the EC50 was 79400 nM.

As for `N#CCNC(=O)[C@H](Cc1ccccc1)NC(=O)c1cncc(Br)c1` [Compound 20, (2S)-2-[(5-bromopyridin-3-yl)formamido]-N-(cyanomethyl)-3-phenylpropanamide], in the data set on LLCMK2 cells, the cytotoxicity at 32 µM is 17 ± 1%. On cruzain, this compound had a Ki of 251 nM. For the same compound, the killing at 32 µM is 25 ± 8% in data set [2] and 0% in data set [1].

The compound `Cn1nc(C(C)(C)C)cc1C(=O)N[C@@H](Cc1ccccc1)C(=O)NCC#N` [Compound 21, (2S)-2-[(3-tert-butyl-1-methyl-1H-pyrazol-5-yl)formamido]-N-(cyanomethyl)-3-phenylpropanamide] registered a melting point of 160 to 162 °C. The compound also showed a Ki on cruzain of 63.1 nM.

With `Cn1nc(C(F)(F)F)cc1C(=O)N[C@@H](Cc1ccccc1)C(=O)NCC#N` [Compound 22], the “%cell lysis at 32 μM LLCMK2” value with LLCMK2 cells came to 19 ± 0.4%. Also, at cruzain, the pKi was found to be 6.3. In addition, the “%cell lysis at 32 μM ama Brener” value in data set [2] was determined as 20 ± 2%. In addition, in data set [1], the “%cell lysis at 32 μM ama Tula” value came to 48 ± 4% and the “pEC50 ama Tula” value came out at 4.0.

For the compound `N#CCNC(=O)[C@H](Cc1ccccc1)NC(=O)c1cc(=O)[nH]c(=O)[nH]1` [Compound 23, (2S)-N-(cyanomethyl)-2-[(2,6-dioxo-1,2,3,6-tetrahydropyrimidin-4-yl)formamido]-3-phenyl propanamide], the “%cell lysis at 32 μM LLCMK2” value in the data set on LLCMK2 cells came out at 22 ± 5%. At cruzain, this compound yielded a pKi of 5.9. Besides, the “%cell lysis at 32 μM ama Brener” value in data set [2] came out at 27 ± 1%. Also, the “%cell lysis at 32 μM ama Tula” value in data set [1] came to 0%.

Consider `N#CCNC(=O)[C@H](Cc1ccccc1)NC(=O)OCc1ccccc1` [Compound 24, Benzyl N-[(1S)-1-[(cyanomethyl)carbamoyl]-2-phenylethyl]carbamate], for which the Ki at cruzain was 501 nM.

Take `CC(C)(C)OC(=O)N[C@@H](Cc1ccccc1)C(=O)NCC#N` [Compound 25, Tert-butyl-N-[(1S)-1-[(cyanomethyl)carbamoyl]-2-phenylethyl]carbamete]: the “%cell lysis at 32 μM LLCMK2” value with LLCMK2 cells is on record as 31 ± 2%. The same compound gave a negative-log Ki (pKi) at cruzain of 5.6. Moreover, the “%cell lysis at 32 μM ama Brener” value in data set [2] amounted to 23 ± 2%. Further, in data set [1], the “%cell lysis at 32 μM ama Tula” value is 37 ± 1% and the “pEC50 ama Tula” value turned out to be 4.1.

Take `CC(C)C[C@H](NC(=O)OC(C)(C)C)C(=O)NCC#N` [Compound 27, tert-butyl N-[(1S)-1-[(cyanomethyl)carbamoyl]-3-methylbutyl]carbamate]: the cytotoxicity at 32 µM with LLCMK2 cells was 0%. At cruzain, this compound showed a Ki of 1260 nM. The killing at 32 µM in data set [2] stood at 19 ± 3%; in data set [1], 0%.

Take `CC(C)C[C@H](NC(=O)c1cc(C(C)(C)C)nn1C)C(=O)NC1(C#N)CC1` [Compound 30, (2S)-2-[(3-tert-butyl-1-methyl-1H-pyrazol-5-yl)formamido]-N-(1-cyanocyclopropyl)-4-methylpentanamide]: the Ki on cruzain was 25.1 nM. Besides, the killing at 32 µM in data set [2] was determined as 11 ± 6%.

For the compound `CC(C)C[C@H](NC(=O)OC(C)(C)C)C(=O)NC1(C#N)CC1` [Compound 31, tert-butyl N-[(1S)-1-[(1-cyanocyclopropyl)carbamoyl]-3-methylbutyl]carbamate], the Ki at cruzain was 631 nM.

The compound `CC(C)(C)C[C@H](NC(=O)c1ccccc1)C(=O)NC1(C#N)CC1` [Compound 32, (2S)-N-(1-cyanocyclopropyl)-4,4-dimethyl-2-(phenylformamido)pentanamide] displayed a melting point of 186 to 187 °C. At cruzain, this compound gave a Ki of 25100 nM.

In the case of `Cn1nc(C(F)(F)F)cc1C(=O)N[C@@H](Cc1ccccc1)C(=O)NC1(C#N)CC1` [Compound 33, (2S)-N-(1-cyanocyclopropyl)-2-{[1-methyl-3-(trifluoromethyl)-1H-pyrazol-5-yl]formamido}-3-phenylpropanamide], the melting point lay in the range of 211 to 212 °C. The affinity on cruzain corresponds to a Ki of 398 nM. For the same compound, in data set [2], the killing at 32 µM amounted to 22 ± 10%.

As to `Cn1nc(C(C)(C)C)cc1C(=O)N[C@@H](Cc1ccccc1)C(=O)NC1(C#N)CC1` [Compound 34, (2S)-2-[(5-tert-butyl-2-methylpyrazol-3-yl)formamido]-N-(1-cyanocyclopropyl)-3-phenylpropanamide], in the data set on LLCMK2 cells, the cytotoxicity at 32 µM is 17 ± 3%. Moreover, affinity at cruzain was put at a Ki of 63.1 nM. The killing at 32 µM in data set [2] stood at 23 ± 3%; in data set [1] it was 0%.

The compound `N#CC1(NC(=O)[C@H](Cc2ccccc2)NC(=O)c2cnccn2)CC1` [Compound 35, (2S)-N-(1-cyanocyclopropyl)-3-phenyl-2-(pyrazin-2-ylformamido)propanamide] had a melting point of 162 to 164 °C. The compound also had an inhibition constant (Ki) at cruzain of 501 nM.

The compound `N#Cc1cccc(C[C@H](NC(=O)c2ccccc2)C(=O)NC2(C#N)CC2)c1` [Compound 36, (2S)-N-(1-cyanocyclopropyl)-3-(3-cyanophenyl)-2-(phenylformamido)propanamide] returned a melting point of 191 to 194 °C. Further, on cruzain, the Ki is 3980 nM.

As for `N#CC1(NC(=O)C2(NC(=O)c3ccccc3)CCCC2)CC1` [Compound 37], the “%cell lysis at 32 μM LLCMK2” value in the data set on LLCMK2 cells stood at 26 ± 3%. The compound also yielded a pKi at cruzain of 4.9. In addition, the “%cell lysis at 32 μM ama Brener” value in data set [2] is recorded as 8 ± 3%. Besides, in data set [1], the “%cell lysis at 32 μM ama Tula” value stood at 34 ± 5% and the “pEC50 ama Tula” value was 4.1.

As a reminder, the Ki is a measure of affinity in units of concentration, obtained from inhibition or displacement. High values mean lower affinity, low ones higher affinity. As a reminder, the melting point is the temperature, or range, at which the solid turns liquid. The term pKi denotes −log10 of the Ki, conventionally taken in molar units. The low end stands for a large Ki, the high end for a small Ki.
